From patent US20260365628A1, “SUBSTITUTED 3,4-DIHYDROQUINOLINONE INHIBITORS OF TSHR” (Septerna, Inc., priority 2022, published 2026)

Biological target: T1, hTSHR (Homo sapiens, UniProt P16473)
T1 construct: expressed in transfected cells
Assay: hTSHR TR-FRET cAMP Assay (inhibition of M22-stimulated cAMP production)
Type: cell-based
Details: Expi293F Inducible cells stably expressing hTSHR; cAMP HTRF; stimulated with EC80 of anti-TSHR antibody M22; 15 min compound preincubation, 30 min at 37° C.; read-out: Activity (IC50 bins)
Procedure: Assays were performed using Expi293F Inducible cells (Invitrogen) stably expressing hTSHR via a pcZeo TetO DNA plasmid. Cell lines were maintained in suspension in Expi293 Expression Medium (ThermoFisher Scientific) supplemented with 10 µg/mL Blasticidin and 10 μg/mL Zeocin and incubated at 37° C., 8% CO2, with shaking. hTSHR cells were incubated overnight at 32° C., 5% C02, with shaking, but […] Doxycycline. Assay-ready aliquots were prepared by harvesting each cell type separately 24-hours post-induction. Cells were pelleted at 4° C., resuspended in Expi293 Expression media+10% DMSO, aliquoted, and kept frozen at −80° C. until ready for use.
For the assay, concentration-response curves of test and reference compounds were added to 384-well plates using an Echo 650 liquid handler (Beckman Coulter) and backfilled with DMSO to a final concentration of 0.5%. cAMP was measured using the cisbio cAMP Gs dynamic HTRF kit (PerkinElmer) according to manufacturer instructions. Aliquots of frozen hTSHR cells were quickly thawed and washed with phosphate-buffered saline (Sigma-Aldrich) to remove media and DMSO. The cells were resuspended in kit-supplied Stimulation Buffer at 0.8×10^6 cells/mL. 7.5 μL of the hTSHR cell dilution were added to each well of the assay plate and incubated with the compounds for 15 minutes in a 37 C, 0% CO2 incubator. 2.5 μL of Vehicle control or an EC80 concentration of recombinant human anti-TSHR antibody (M22, Creative Biolabs) was added to stimulate cAMP production. Cells were incubated with for 30 minutes at 37° C., 0% CO2. Following this incubation, the cells were lysed and accumulated cAMP was detected through the addition of kit-supplied lysis buffer containing d2-reagent and Eu-cryptate antibody. The HTRF signal was quantified using a BMG Clariostar plate reader optimized for HTRF assays. The HTRF ratio was determined by dividing the signal output at […] by that at 620 nm. Data were normalized to the signal produced by the EC80 concentration of either M22 or FSH (0% inhibition) and vehicle (no agonist, 100% inhibition).

T1 sequence (P16473 21-764): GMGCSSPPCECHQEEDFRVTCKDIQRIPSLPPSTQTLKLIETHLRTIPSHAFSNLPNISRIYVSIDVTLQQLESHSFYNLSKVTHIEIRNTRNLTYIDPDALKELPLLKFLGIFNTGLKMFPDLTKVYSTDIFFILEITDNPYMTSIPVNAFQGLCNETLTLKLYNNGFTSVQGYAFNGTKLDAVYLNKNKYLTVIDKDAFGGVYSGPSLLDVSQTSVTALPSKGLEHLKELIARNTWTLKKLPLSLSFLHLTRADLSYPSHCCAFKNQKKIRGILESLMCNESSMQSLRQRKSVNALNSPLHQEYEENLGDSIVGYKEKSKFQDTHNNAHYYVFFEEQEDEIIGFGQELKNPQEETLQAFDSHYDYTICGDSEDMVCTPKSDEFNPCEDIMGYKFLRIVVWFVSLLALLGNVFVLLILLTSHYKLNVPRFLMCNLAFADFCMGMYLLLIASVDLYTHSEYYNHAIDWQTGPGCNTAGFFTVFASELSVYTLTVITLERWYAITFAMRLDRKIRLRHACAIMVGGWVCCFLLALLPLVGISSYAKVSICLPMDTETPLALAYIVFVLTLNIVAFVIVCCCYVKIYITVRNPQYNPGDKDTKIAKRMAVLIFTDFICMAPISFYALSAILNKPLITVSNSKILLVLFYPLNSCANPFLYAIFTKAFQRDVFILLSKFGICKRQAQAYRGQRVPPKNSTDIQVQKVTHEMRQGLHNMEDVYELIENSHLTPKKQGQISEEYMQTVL

Row | SMILES | IC50
1 | C[C@H]1Oc2cc(NC(=O)NC(C)(C)C)ccc2N([C@@H](C)c2cncc(C(F)(F)F)n2)C1=O (single isomer, unassigned) [Example 306] | > 1000 nM
2 | C[C@H](c1ccnc(C(F)(F)F)n1)N1C(=O)[C@@H](C)Oc2cc(NC(=O)NC(C)(C)C)ccc21 (single isomer, unassigned) [Example 311] | > 1000 nM
3 | C[C@H]1Cc2cc(NC(=O)NC(C)(C)C)c(F)cc2N(Cc2ccccc2)C1=O (single isomer, unassigned) [Example 333] | > 1000 nM
4 | C[C@@H]1Cc2cc(NC(=O)NC(C)(C)C)c(F)cc2N(Cc2ccccc2)C1=O (single isomer, unassigned) [Example 334] | > 1000 nM
5 | CC1Oc2nc(NC(=O)NC(C)(C)C)c(C(F)(F)F)cc2N(Cc2ccccc2)C1=O (stereo in doubt) [Example 378, (R)-1-(1-benzyl-3-methyl-2-oxo-7-(trifluoromethyl)-2,3-dihydro-1H-pyrido[2,3-b][1,4]oxazin-6-yl)-3-(tert-butyl)urea] | 100 to 1000 nM
6 | CC(C)(C)NC(=O)Nc1ccc2c(c1)CCC(=O)N2Cc1ccccn1 [Example 2, 1-(tert-butyl)-3-(2-oxo-1-(pyridin-2-ylmethyl)-1,2,3,4-tetrahydroquinolin-6-yl)urea] | > 1000 nM
7 | Cn1ccc(CN2C(=O)CCc3cc(NC(=O)NC(C)(C)C)ccc32)n1 [Example 4, 1-(tert-butyl)-3-(1-((1-methyl-1H-pyrazol-3-yl)methyl)-2-oxo-1,2,3,4-tetrahydroquinolin-6-yl)urea] | > 1000 nM
8 | CC(C)(C)NC(=O)Nc1ccc2c(c1)CCC(=O)N2Cc1ccccc1Cl [Example 8, 1-(tert-butyl)-3-(1-(2-chlorobenzyl)-2-oxo-1,2,3,4-tetrahydroquinolin-6-yl)urea] | 100 to 1000 nM
9 | CC(C)(C)NC(=O)Nc1ccc2c(c1)C(C)(C)CC(=O)N2Cc1ccccc1 [Example 10, 1-(1-benzyl-4,4-dimethyl-2-oxo-1,2,3,4-tetrahydroquinolin-6-yl)-3-(tert-butyl)urea] | > 1000 nM
10 | COCC1Cc2cc(NC(=O)NC(C)(C)C)ccc2N(Cc2ccccc2)C1=O (stereo not drawn) [Example 11, 1-(1-benzyl-3-(methoxymethyl)-2-oxo-1,2,3,4-tetrahydroquinolin-6-yl)-3-(tert-butyl)urea] | 100 to 1000 nM
11 | CN1Cc2cc(NC(=O)NC(C)(C)C)ccc2N(Cc2ccccc2)C1=O [Example 12, 1-(1-benzyl-3-methyl-2-oxo-1,2,3,4-tetrahydroquinazolin-6-yl)-3-(tert-butyl)urea] | 100 to 1000 nM
12 | C[C@H](c1ccccc1)N1C(=O)CCc2cc(NC(=O)NC(C)(C)C)ccc21 [Example 14, (R)-1-(tert-butyl)-3-(2-oxo-1-(1-phenylethyl)-1,2,3,4-tetrahydroquinolin-6-yl)urea] | > 1000 nM
13 | CC1CC(=O)N(Cc2ccccc2)c2ccc(NC(=O)NC(C)(C)C)cc21 (stereo not drawn) [Example 15, 1-(1-benzyl-4-methyl-2-oxo-1,2,3,4-tetrahydroquinolin-6-yl)-3-(tert-butyl)urea] | > 1000 nM
14 | CC(C)(CCO)NC(=O)Nc1ccc2c(c1)CCC(=O)N2Cc1ccccc1 [Example 16, 1-(1-benzyl-2-oxo-1,2,3,4-tetrahydroquinolin-6-yl)-3-(4-hydroxy-2-methylbutan-2-yl)urea] | 100 to 1000 nM
15 | CC(C)(C)NC(=O)Nc1ccc2c(c1)CCC(=O)N2Cc1ccc(C#N)cc1 [Example 17, 1-(tert-butyl)-3-(1-(4-cyanobenzyl)-2-oxo-1,2,3,4-tetrahydroquinolin-6-yl)urea] | > 1000 nM
16 | CC(C)(C)NC(=O)Nc1ccc2c(c1)CCC(=O)N2Cc1cccc(C#N)c1 [Example 18, 1-(tert-butyl)-3-(1-(3-cyanobenzyl)-2-oxo-1,2,3,4-tetrahydroquinolin-6-yl)urea] | > 1000 nM

Continued, values first:

Row | IC50 | SMILES
17 | < 100 nM | CC1Oc2cc(NC(=O)NC(C)(C)C)ccc2N(Cc2cccc(Cl)c2)C1=O (single isomer, unassigned) [Example 43]
18 | 100 to 1000 nM | C[C@H]1Oc2cc(NC(=O)NC(C)(C)C)ccc2N([C@@H](C)c2ccnc(C(F)(F)F)n2)C1=O (single isomer, unassigned) [Example 310]
19 | < 100 nM | CC1Oc2cc(NC(=O)NC(C)(C)C)ccc2N(Cc2cccc(Cl)c2)C1=O (stereo in doubt) [Example 44, (S)-1-(tert-butyl)-3-(4-(3-chlorobenzyl)-2-methyl-3-oxo-3,4-dihydro-2H-benzo[b][1,4]oxazin-7-yl)urea]
20 | 100 to 1000 nM | C[C@@H](c1cccc(C(O)C(F)(F)F)n1)n1c(=O)cnc2cc(NC(=O)NC(C)(C)C)ccc21 (stereo in doubt) [Example 154, 1-(tert-butyl)-3-(2-oxo-1-((S)-1-(6-((R)-2,2,2-trifluoro-1-hydroxyethyl)pyridin-2-yl)ethyl)-1,2-dihydroquinoxalin-6-yl)urea]
21 | < 100 nM | C[C@@H](c1cccc(OC(F)(F)F)c1)n1c(=O)cnc2cc(NC(=O)C3CCC3(C)C)ccc21 (stereo in doubt) [Example 219, (S)-2,2-dimethyl-N-(2-oxo-1-((S)-1-(3-(trifluoromethoxy)phenyl)ethyl)-1,2-dihydroquinoxalin-6-yl) cyclobutane-1-carboxamide]
22 | 100 to 1000 nM | CC(c1cccc(OC(F)(F)F)c1)n1c(=O)cnc2cc(NC(=O)[C@H]3CCC3(C)C)ccc21 (stereo in doubt) [Example 220, (S)-2,2-dimethyl-N-(2-oxo-1-((R)-1-(3-(trifluoromethoxy)phenyl)ethyl)-1,2-dihydroquinoxalin-6-yl) cyclobutane-1-carboxamide]
23 | < 100 nM | CC(C)(C)NC(=O)Nc1ccc2c(c1)CCC(=O)N2Cc1ccccc1 [Example 1, 1-(1-benzyl-2-oxo-1,2,3,4-tetrahydroquinolin-6-yl)-3-(tert-butyl)urea]
24 | < 100 nM | CC(c1ccccc1)N1C(=O)CCc2cc(NC(=O)NC(C)(C)C)ccc21 (stereo not drawn) [Example 3, 1-(tert-butyl)-3-(2-oxo-1-(1-phenylethyl)-1,2,3,4-tetrahydroquinolin-6-yl)urea]
25 | < 100 nM | CC1Cc2cc(NC(=O)NC(C)(C)C)ccc2N(Cc2ccccc2)C1=O (stereo not drawn) [Example 5, 1-(1-benzyl-3-methyl-2-oxo-1,2,3,4-tetrahydroquinolin-6-yl)-3-(tert-butyl)urea]
26 | < 100 nM | CC(C)(C)NC(=O)Nc1ccc2c(c1)CCC(=O)N2Cc1cccc(Cl)c1 [Example 6, 1-(tert-butyl)-3-(1-(3-chlorobenzyl)-2-oxo-1,2,3,4-tetrahydroquinolin-6-yl)urea]
27 | < 100 nM | CC(C)(C)NC(=O)Nc1ccc2c(c1)OCC(=O)N2Cc1ccccc1 [Example 7, 1-(4-benzyl-3-oxo-3,4-dihydro-2H-benzo[b][1,4]oxazin-7-yl)-3-(tert-butyl)urea]
28 | < 100 nM | CC(C)(C)OC(=O)Nc1ccc2c(c1)CCC(=O)N2Cc1ccccc1 [Example 9, tert-butyl (1-benzyl-2-oxo-1,2,3,4-tetrahydroquinolin-6-yl)carbamate]
29 | < 100 nM | C[C@@H](c1ccccc1)N1C(=O)CCc2cc(NC(=O)NC(C)(C)C)ccc21 [Example 13, (S)-1-(tert-butyl)-3-(2-oxo-1-(1-phenylethyl)-1,2,3,4-tetrahydroquinolin-6-yl)urea]
30 | < 100 nM | CC(C)(C)NC(=O)Nc1ccc2c(c1)CCC(=O)N2Cc1ccccc1F [Example 19, 3-tert-butyl-1-{1-[(2-fluorophenyl)methyl]-2-oxo-3,4-dihydroquinolin-6-yl}urea]
31 | < 100 nM | CC(C)(C)NC(=O)Nc1ccc2c(c1)CCC(=O)N2Cc1ccccc1C#N [Example 20, 1-(tert-butyl)-3-(1-(2-cyanobenzyl)-2-oxo-1,2,3,4-tetrahydroquinolin-6-yl)urea]
32 | < 100 nM | Cc1cccc(CN2C(=O)CCc3cc(NC(=O)NC(C)(C)C)ccc32)c1 [Example 21, 1-(tert-butyl)-3-(1-(3-methylbenzyl)-2-oxo-1,2,3,4-tetrahydroquinolin-6-yl)urea]
33 | < 100 nM | COc1cccc(CN2C(=O)CCc3cc(NC(=O)NC(C)(C)C)ccc32)c1 [Example 22, 1-(tert-butyl)-3-(1-(3-methoxybenzyl)-2-oxo-1,2,3,4-tetrahydroquinolin-6-yl)urea]
34 | < 100 nM | CC(C)(C)NC(=O)Nc1ccc2c(c1)CCC(=O)N2Cc1cccc(C(F)(F)F)c1 [Example 23, 1-(tert-butyl)-3-(2-oxo-1-(3-(trifluoromethyl)benzyl)-1,2,3,4-tetrahydroquinolin-6-yl)urea]
35 | < 100 nM | CC(C)(C)NC(=O)Nc1ccc2c(c1)CCC(=O)N2Cc1cc(Cl)ccc1Cl [Example 24, 3-tert-butyl-1-{1-[(2,5-dichlorophenyl)methyl]-2-oxo-3,4-dihydroquinolin-6-yl}urea]
36 | < 100 nM | CC(C)(C)NC(=O)Nc1ccc2c(c1)CCC(=O)N2Cc1cc(Cl)cc(Cl)c1 [Example 25, 1-(tert-butyl)-3-(1-(3,5-dichlorobenzyl)-2-oxo-1,2,3,4-tetrahydroquinolin-6-yl) urea]
